These are literature values, as cited in patent US9968093B1, “Development and manufacturing process of powdered additive for its use in coatings or substrates to repel, reduce and control insects” (priority 2016, dated 2018).

For series [1] the following is noted: for Toxicity: toxicity in words.
The conditions of series [2]: for Time to decompose (Mean life): aqueous medium; for Stability in aqueous medium, in words: pH as stated in the value.

“Also recorded” adds a separate entry of the source. Read-outs that look alike come from different tables or passages of the source.

On to `OB(O)O` [Boric acid], for which, in series [1], the “Toxicity (group)” value was “Group II” and the Toxicity result is listed as “Mildly toxic”.

Regarding `CNC(=O)Oc1cccc2c1OC(C)(C)C2` [Carbofuran], in series [1], the “Toxicity (group)” value is given as “Group II” and the Toxicity result is on record as “Mildly toxic”.

Consider `CCOP(=S)(OCC)Oc1nc(Cl)c(Cl)cc1Cl` [Chlorpyrifos], for which, in series [2] (pH 10), the “Time to decompose (Mean life)” value is recorded as 7 days. Also, the “Stability in aqueous medium, in words” value in series [2] was “stable in neutral and lightly”.

For `CCOP(=S)(OCC)Oc1ccc2c(C)c(Cl)c(=O)oc2c1` [Coumaphos], the Toxicity result in series [1] is recorded as “Toxic”.

`CC1(C)C(C=C(Cl)Cl)C1C(=O)OC(C#N)c1cccc(Oc2ccccc2)c1` (stereo not shown) [Cypermethrin]: the “Time to decompose (Mean life)” value in series [2] (pH 9) is reported as 7 days.

Regarding `C=CCC1=C(C)C(OC(=O)C2C(C=C(C)C)C2(C)C)CC1=O` [D-allethrin], the entries for the “Time to decompose (Mean life)” value in series [2] (pH 7) and in series [2] (pH 9) were 500 days and “(4.3 days)”, respectively. In addition, the “Stability in aqueous medium, in words” value in series [2] is “Stable at pH 5 after 31 days”.

On to `CC1(C)[C@H](C(=O)O[C@H](C#N)c2cccc(Oc3ccccc3)c2)[C@@H]1C=C(Br)Br` [Deltamethrin], for which the “Time to decompose (Mean life)” value in series [2] (pH 7) is 0.33 days. The “Stability in aqueous medium, in words” value in series [2] is given as “more stable in medium acid solutions”.

Consider `CCOP(=S)(OCC)Oc1cc(C)nc(C(C)C)n1` [Diazinon], for which the “Time to decompose (Mean life)” value in series [2] (pH 5) is 31 days; in series [2] (pH 7.5), 185 days; in series [2] (pH 9), 136 days.

Turning to `O=C(NC(=O)c1c(F)cccc1F)Nc1ccc(Cl)cc1` [Diflubenzuron], the “Stability in aqueous medium, in words” value in series [2] is “Stable in pH between 5 and 7; also recorded: Hydrolyzed at pH 9”.

Turning to `CCOC(=O)CC(SP(=S)(OC)OC)C(=O)OCC` (stereo not shown) [Malathion], the “Stability in aqueous medium, in words” value in series [2] is on record as “Quickly hydrolyzed at pHs over 7. The optimal pH”.

Take `CCN(CC)c1nc(C)cc(OP(=S)(OC)OC)n1` [Methyl pirimiphos]: the figures for the “Time to decompose (Mean life)” value in series [2] (pH 5) and in series [2] (pH 8) were 7 days and 5 days, respectively.

Turning to `CC1(C)C(C=C(Cl)Cl)C1C(=O)OCc1cccc(Oc2ccccc2)c1` (stereo not shown) [Permethrin], the “Stability in aqueous medium, in words” value in series [2] is “Stable at pH between 5 and 6”.

For the molecule `CC(COc1ccc(Oc2ccccc2)cc1)Oc1ccccn1` (stereo not shown) [Pyriproxyfen], the “Stability in aqueous medium, in words” value in series [2] was “Stable in a pH range between 4 and 9”.
